Common to all, as to type: cell-based
The target in assay [1] is T1, MRGPRX4 WT (S83) (Homo sapiens, UniProt Q96LA9, L83S). As to the kind of experiment: Calcium mobilization assay (FLIPR), WT (S83) MRGPRX4 transiently expressed in HEK293T cells. Also noted: expressed in transfected cells; host or cells: HEK293T, transient. The settings on record: for fig. S8 response (normalized), concentration-response: WT, single replicate. An excerpt: (§1) Fig. 4. […] Hydrogen bond is shown as cyan dashed lines. […] Data are from three independent experiments, performed in triplicate. (E) pEC50 plots of various agonists toward S83- and L83-MRGPRX4 through calcium mobilization assay. […] Each data point represents an independent experiment, performed in triplicate. The extra sum-of-square F test was used to examine the difference in EC50 values. One-sided t-test was used for nateglinide. *p< 0.05, **p< 0.01 and ***p< 0.001. ns = no statistical significance. Both (D) and (E) are reported as the mean ± SEM. N.D.= no detectable response ≤ 100 μM.
T1 sequence (Q96LA9 whole entry L83S): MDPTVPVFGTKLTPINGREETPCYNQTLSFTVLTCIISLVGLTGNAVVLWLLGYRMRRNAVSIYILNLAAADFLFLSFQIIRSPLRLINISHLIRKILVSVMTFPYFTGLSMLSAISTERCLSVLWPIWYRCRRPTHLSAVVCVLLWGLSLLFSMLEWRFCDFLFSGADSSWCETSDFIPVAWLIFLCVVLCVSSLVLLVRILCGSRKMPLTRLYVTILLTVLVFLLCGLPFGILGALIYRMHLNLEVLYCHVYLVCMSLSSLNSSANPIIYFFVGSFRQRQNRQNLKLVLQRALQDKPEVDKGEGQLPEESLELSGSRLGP
(§2) HEK293 cells and MRGPRX4 stably expressed HEK293 cells were seeded in 100 μl culture media on 96-well plates at a density of 40,000 cells per well and incubated overnight. The next day, the media were replaced with a dye-loading solution from the FLIPR Calcium 5 assay kit (Molecular Devices), diluted in Hank's Balanced Salt Solution (HBSS) with 20 mM HEPES, pH 7.4. After 1 h of incubation at 37°C, cells were allowed to recover for 10 min in the dark at room temperature prior to performing intracellular calcium mobilization assay in a Flexstation-3 instrument with SoftMax®Pro 7.1 software (Molecular Devices). Serial concentrations of tested drugs were prepared in HBSS/HEPES solution at 3X concentration. […] Compounds were tested in triplicates and the signals were averaged. Responses were determined by subtracting the minimum signal (at the baseline before adding the drug) from the maximum signal (obtained after drug stimulation). Four-parameter logistic (4PL) curve fit was used to plot the dose-response curves. […] Both dose-response curve fitting and EC50s calculation are computed with GraphPad Prism software (version: 6.o or above).
(§3) To generate murine Mrgprs expressing cells, HEK293T cells (ATCC) were seeded on poly-D-lysine coated 96 well plate at 25,000 cells per well one day prior to transfection. HEK293T cells were transiently co-transfected with the mammalian expression plasmids carrying cDNA encoding the murine Mrgpr genes and plasmid inserted with cDNA encoding murine α-subunit of the heterotrimeric G15 protein (Gα15) in triplicates using Lipofectamine LTX reagents (Thermo Scientific). To generate WT, S83L, and alanine mutant MRGPRX4-expressing cells, HEK293T cells were seeded on poly-D-lysine coated 384 well plate at 12,000 cells per well one day prior to transfection. Mammalian expression plasmids pLX304 (vector from Addgene) carrying different MRGPRX4 coding sequences were transiently transfected into HEK293T cells in triplicates with Lipofectamine LTX reagents (Thermo Scientific). Intracellular calcium mobilization assays were performed after one day of transfection. Murine Mrgprs tested include Mrgpra1, Mrgpra2a, Mrgpra2b, Mrgpra3, Mrgpra4, Mrgpra6, Mrgpra9, Mrgpra10, Mrgpra11, Mrgpra12, Mrgpra14, Mrgprb5, Mrgprb6, Mrgprb10, Mrgprb11, and Mrgprc11. WT and mutant MRGPRX4 constructs tested include WT, S83L, R82A, R86A, R95A, W158A, Y250A, and Y254A.

The target in another assay is MRGPRX4 S83L (L83) (Homo sapiens, UniProt Q96LA9). As to the kind of experiment: Calcium mobilization assay (FLIPR), S83L MRGPRX4 transiently expressed in HEK293T cells. Also noted: expressed in transfected cells; host or cells: HEK293T, transient. The settings on record: 2e-5 M, single replicate.
Chain of MRGPRX4 S83L (L83) (Q96LA9 whole entry, stated change not applied): as the sequence (Q96LA9 whole entry L83S) above, with S83L counted along it
Text: as §1, §2, §3
On the technique in general: A change in cytosolic calcium serves as a functional read-out for many receptors and channels.

The next assay deals with HTLA cells. As to the kind of experiment: PRESTO-Tango β-arrestin recruitment assay, parental HTLA cells without MRGPRX4 (control, fig. S1). An excerpt: Supplement NIHMS2038790-supplement-table.xlsx, sheet "fig. S1" | column: Concentration (M)
For orientation: Recruitment of arrestin is a read-out of receptor activation apart from second messengers.

The next assay concerns the target T2, MRGPRX4 (S83) (Homo sapiens, UniProt Q96LA9, L83S).
T2 construct: expressed in transfected cells
As to the kind of experiment: EC50 determination, intracellular calcium mobilization in MRGPRX4 stably expressed HEK293 cells (FLIPR Calcium 5, Flexstation-3). The settings on record: propofol series, individual replicate values. In a few lines: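 HEK293 cells stably expressing receptor (parental HEK293 alongside) loaded with Calcium 5 dye in HBSS/20 mM HEPES, pH 7.4, 1 h at 37 °C, then compounds added. Response = peak minus pre-drug baseline, triplicates averaged; EC50 from 4PL fit.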

Assay [2] addresses T1, MRGPRX4 WT (S83). As to the kind of experiment: PRESTO-Tango β-arrestin recruitment assay, HTLA cells stably expressing WT (S83) MRGPRX4. Also noted: expressed in transfected cells. The conditions noted are these: HTLA::MRGPRX4. As for the experimental part: HTLA cells, a cell line derived from HEK293 and engineered to stably express a tTA-dependent luciferase reporter and a β-arrestin2-TEV fusion gene, were generously provided by Richard Axel's laboratory. HTLA cells were cultured in growth medium containing 2 μg/ml puromycin and 100 μg/ml hygromycin B in 5% CO2 at 37 °C. Stably MRGPRX4-expressing HTLA cells were generated by transfecting pcDNA3.1(+)-Zeo containing MRGPRX4-Tango construct (either with WT or S83L mutant sequence) into HTLA cells with Lipofectamine 3000 and selecting the successful transfected clones with Zeocin.
HTLA cells stably expressing either WT or S83L MRGPRX4 were seeded in PDL-coated 96-well white clear bottom cell culture plates with DMEM containing 10% FBS, at a density of 35,000 cells per well and were allowed to attach to the bottom of the wells overnight. The next day, growth medium was replaced with 100 μl of serum-free medium containing the tested drugs at various concentrations, and the cells were then incubated at 37°C for 24 h. On the following day, media with drug solutions was removed and 50 μl per well of Bright-Glo™ Reagent from Bright-Glo™ Luciferase Assay System (Promega) was loaded. The plate was incubated at room temperature in the dark for 5 min, and the relative luminescence units were measured using the Flexstation-3 instrument with SoftMax®Pro 7.1 software (Molecular Devices). Dose response curves and EC50s were analyzed as described above.
Data are from at least two independent experiments, each performed in
triplicate, and are depicted as mean ± SEM.
arrestin2-TEV fusion gene and a tTA -dependent luciferase reporter.

Values joined by “and” are separate entries in the source; they are usually repeats but may differ in a detail not shown here. Equal entries are not always repeated.

T2 sequence (Q96LA9 whole entry L83S): as the sequence (Q96LA9 whole entry L83S) above

`C[C@H](CCC(=O)O)[C@H]1CC[C@H]2[C@@H]3CC[C@@H]4C[C@H](O)CC[C@]4(C)[C@H]3C[C@H](O)[C@]12C` [Deoxycholic Acid]: the “fig. S8 response (normalized), concentration-response” value at MRGPRX4 WT (S83) [1] (1.95e-8 M) is 6.035; on MRGPRX4 WT (S83) [1] (3.91e-8 M), 8.843; at MRGPRX4 S83L (L83), 87.5629. The “Potency at S83- vs L83-MRGPRX4” value on MRGPRX4 WT (S83) [1] (calcium mobilization, compared with S83L (A17)) was “equal potency”.
On to `CC(C)c1cccc(C(C)C)c1O` [Propofol], for which the “PRESTO-Tango response (fig. S1), single replicate” value (from here on “PRESTO-Tango response (fig. S1)”) in the assay on HTLA cells (concentration 9.77e-7 M) is 0.002641 and 0.003228 and 0.001921 and 0.003818 and 0.005628 and 0.002399 and 0.002922 and 0.00482 and 0.001506; in the assay on HTLA cells (concentration 1.95e-6 M) it was 0.01304 and 0.00742 and 0.001861 and 0.009318 and 0.007315 and 0.005392 and 0.006104 and 0.000476 and 0.005086; in the assay on HTLA cells (concentration 3.91e-6 M), 0.0059 and 0.008908 and 0.007295 and 0.003528 and 0.003903 and 0.003563 and 0.006271 and 0.01085 and 0.002976; with HTLA cells (concentration 7.81e-6 M) it was 0.01035 and 0.005294 and 0.00767 and 0.001374 and 0.003682 and 0.00304 and 0.005677 and 0.00324 and 0.000748; with HTLA cells (concentration 1.56e-5 M), 0.005663 and 0.003492 and 0.001779 and 0.006047 and 0.000809 and 0.001829 and 0.006081 and 0.002266 and 0.003388; in the assay with HTLA cells (concentration 3.13e-5 M) it was 0.005015 and 0.001994 and 0.006447 and 0.00774 and 0.01014 and 0.004442 and 0.006627 and 0.005281 and 0.005885. Besides, the “PRESTO-Tango response (fig. S1)” value is 0.00323 and 0.00222 and 0.005079 and 0.001882 and 0.000357 and 0.003112 and 0.002446 and 0.001662 and 0.004291 in the assay with HTLA cells (concentration 6.25e-5 M); 0.00362 and 0.004413 and 0.002642 and 0.006045 and 0.000923 and 0.008313 and 0.004252 and 0.005811 and 0.003669 in the assay on HTLA cells (concentration 0.00025 M); 0.004877 and 0.00565 and 0.005098 and 0.004157 and 0.003595 and 0.001306 and 0.008836 and 0.005548 and 0.00448 in the assay on HTLA cells (concentration 0.0005 M); 0.000524 and 0.002159 and 0.001733 and 0.007522 and 0.000243 and 0.003444 and 0.004679 and 0.004321 and 0.006568 with HTLA cells (concentration 0.001 M); 0.1179 and 0.1434 and 0.1128 and 0.0576 and 0.1584 and 0.1581 and 0.09558 and 0.2113 and 0.06727 on MRGPRX4 WT (S83) [2] (concentration 9.77e-7 M); 0.1108 and 0.0929 and 0.1168 and 0.004899 and 0.1204 and 0.1953 and 0.1172 and 0.1059 and 0.09744 on MRGPRX4 WT (S83) [2] (concentration 1.95e-6 M). For the same compound, the “PRESTO-Tango response (fig. S1)” value is 0.09107 and 0.1491 and 0.1505 and 0.154 and 0.1534 and 0.08321 and 0.05164 and 0.03127 and 0.3077 on MRGPRX4 WT (S83) [2] (concentration 3.91e-6 M); 0.1035 and 0.1156 and 0.1105 and 0.05878 and 0.1844 and 0.08643 and 0.09982 and 0.0447 and 0.1851 at MRGPRX4 WT (S83) [2] (concentration 7.81e-6 M); 0.1135 and 0.116 and 0.1027 and 0.1824 and 0.02561 and 0.1241 and 0.06605 and 0.09721 and 0.1689 at MRGPRX4 WT (S83) [2] (concentration 1.56e-5 M); 0.1268 and 0.1068 and 0.1143 and 0.2727 and 0.04775 and 0.02749 and 0.1181 and 0.1469 and 0.08291 on MRGPRX4 WT (S83) [2] (concentration 3.13e-5 M); 0.1552 and 0.07997 and 0.0929 and 0.03397 and 0.1353 and 0.1588 and 0.2302 and 0.01074 and 0.08707 on MRGPRX4 WT (S83) [2] (concentration 6.25e-5 M); 0.109 and 0.07615 and 0.1012 and 0.1462 and 0.1013 and 0.03885 and 0.188 and 0.002674 and 0.09569 on MRGPRX4 WT (S83) [2] (concentration 0.00025 M). Moreover, the “PRESTO-Tango response (fig. S1)” value at MRGPRX4 WT (S83) [2] (concentration 0.0005 M) is 0.06978 and 0.08316 and 0.1048 and 0.1033 and 0.11 and 0.04438 and 0.05461 and 0.1469 and 0.05616; on MRGPRX4 WT (S83) [2] (concentration 0.001 M), 0.07852 and 0.088 and 0.0856 and 0.07264 and 0.06166 and 0.1178 and 0.08358 and 0.132 and 0.03659. Also, the “Fig. 1D dose-response, calcium response at Concentration (M)” value at MRGPRX4 (S83) (9.76563e-7 M) is 0.414 and 3.255 and 2.599 and 1.616 and 1.795 and 1.237 and 1.276 and 3.496 and 2.341; at MRGPRX4 (S83) (1.95313e-6 M), 1.458 and 0.513 and 0.300 and 1.914 and 1.276 and 2.203 and 3.251 and -1.964 and 1.519; on MRGPRX4 (S83) (3.90625e-6 M) it was 5.819 and 7.751 and 4.466 and 7.090 and 4.830 and 4.639 and 13.006 and -1.259 and 2.816; at MRGPRX4 (S83) (7.8125e-6 M), 1.962 and 0.130 and 1.580 and 1.041 and 3.162 and 0.591 and -0.388 and 5.581 and 3.691; at MRGPRX4 (S83) (1.5625e-5 M), 1.132 and 9.188 and 9.688 and 3.963 and 8.123 and 8.863 and 0.133 and 12.778 and 11.454; at MRGPRX4 (S83) (3.125e-5 M), 25.991 and 46.958 and 31.996 and 27.619 and 18.338 and 28.954 and 31.875 and 17.124 and 5.004. In addition, the “Fig. 1D dose-response, calcium response at Concentration (M)” value on MRGPRX4 (S83) (6.25e-5 M) was 7.246 and 18.605 and 32.559 and 31.367 and 1.645 and 36.351 and 11.712 and 17.508 and 39.720; at MRGPRX4 (S83) (0.00025 M) it was 30.626 and 14.912 and 5.366 and 49.034 and 15.438 and 25.512 and 22.768 and 21.559 and 24.302; at MRGPRX4 (S83) (0.0005 M), 10.617 and 40.711 and 21.943 and 10.261 and 44.385 and 12.114 and 18.721 and 45.754 and 25.261; at MRGPRX4 (S83) (0.001 M), 34.500 and 40.615 and 40.058 and 10.462 and 33.199 and 24.127 and 20.241 and 39.351 and 8.604.

The values above are taken from PMC11645656, “MRGPRX4 mediates phospho-drug associated pruritus in a humanized mouse model” (Science translational medicine, 2024).
